Patent publication US20040143025A1, “Carbon monoxide generating compunds for treatment of vascular, inflammatory and immune disorders” (priority 2002, published 2004)
Read-outs that look alike come from different tables or passages of the source.

What was measured:
[1] = tested on: LEW.1W aortic allografts in LEW.1A rats; assay: Chronic aorta allograft rejection model, morphometry of intima thickness; format: in vivo, rat; details: day 30
Description: Animals and aorta transplantation. Transplantations were performed using 250 g inbred male Lewis 1W rats (LEW. 1W, haplotype RT1^u) as donors and LEW.1A rats (haplotype RT1^a) as recipients (CERJ, Le Genest St. Isle, France). These animals are completely mismatched for the entire MHC region. Animal procedures followed European guidelines for animal experimentation. The descending thoracic aortas were harvested, perfused with saline and anastomosed to the recipient's abdominal aorta below the renal arteries and above the aortic bifurcation. Anastomosis was performed in a termino-lateral fashion and the recipient abdominal aorta was ligated between the two-graft anastomosis. […]
MC (Sigma, St. Louis, Mo.) was diluted in olive oil and administered orally on a daily basis (from day 0 to 30) at 500 mg/kg. […] COHb levels were evaluated in heparinized venous blood using the VOXimeter sensor (A-VOX Systems, San Antonio, Tex.) and expressed as the percentage of total hemoglobin. Bicarbonates, soluble CO2, total CO2 and pH were measured using standard clinical biochemistry techniques (Laboratory of Biochemistry, University Hospital of Nantes).
Recombinant adenovirus and gene transfer into the aorta. […] Quantification of infectious adenoviral particles was determined by counting the number of spots (corresponding to individual viral replication events) on infected 293 cells. […]

rat liver = tested on: rat liver; parameters: species or system Sprague Dawley (SD) rats
Excerpt: Animals. Male Sprague Dawley (SD) rats weighing between 300-350 g (Harlan Sprague Dawley, Indianapolis, Ind.) were used. Animals were fed standard rodent chow and water and libitum and cared according to guidelines approved by the American Association of Laboratory Animal Care.
Isolated perfusion liver apparatus. An isolated perfusion liver apparatus was used, as described in Amersi et al., supra, and Maulik et al., Circulation 94:398-406 (1996). In brief, syngeneic rat blood, obtained for each experiment from four donor animals, was diluted to a hematocrit of 15% with Krebs Ringer Bicarbonate Buffer (mM: NaCl 118, KH2POF 1, MgSO4 0.9, CaCl2 2.5, dextrose 11.1, and NaHCO2 25), and maintained at pH of 7.4. The perfusate was pumped from a heated reservoir that warmed the perfusate to 37° C. through silastic tubing oxygenator connected to a flow meter that measured portal vein blood flow (Cole Palmer Instruments, Chicago, Ill.). Portal pressure was kept constant via a pressure monometer connected to a T fitting in the portal vein canula. […] During the experiment, pH, temperature and oxygenation were kept constant.
Ex vivo cold ischemia model. SD rats underwent isoflourane anesthesia and systemic heparinization. […] The livers were then stored for 24 h at 4° C. in UW solution, followed by ex-vivo reperfusion for 1-2 h on an isolated perfusion liver apparatus. Portal vein blood flow, pressure, and bile production were recorded every 30 min. Blood samples were collected at 30 min intervals and serum glutamic oxaloacetic transaminase (sGOT) levels were measured using an autoanalyzer from ANTECH Diagnostics (Irvine, Calif.). At the conclusion of experiment, a portion of the liver was snap frozen for mRNA extraction/Western blot analyses; the remaining samples were fixed in formalin for H&E staining.
The role of CO—HO-1 pathway in hepatic I/R injury was studied in five major treatment groups (n=4.8 rats/group). In Group 1, the extent of I/R injury was contrasted between livers perfused ex-vivo with blood saturated with CO (300 parts per million [ppm]; 0.03% balanced air) vs. air alone (21% O2). As NO may enhance HO-1 expression (Brouard et al., supra), we then investigated a link between the two gaseous molecules in Group 2 livers, which were perfused with CO supplemented with 25 mM NG-nitro-L-arginine methyl ester hydrochloride (L-NAME; Sigma Chemicals, St. Louis, Mo.), an inducible NO inhibitor. […] To analyze as to whether exogenous CO can substitute for HO-1 in preventing I/R insult, Group 4 rats were treated 24 h prior to liver procurement with ZnPP)(1.5 mg/kg/i.p; Porphyrin Products, Logan Utah), an HO-1 inhibitor, followed by ex vivo perfusion with CO. […] Brouard et al., supra. Therefore, Group 5 rats were pre-treated 60 min before harvest with p38 MAPK inhibitor, SB203580, a pyridinyl imidazol (25 mg/kg orally; Sigma). In addition, prior to reperfursion with CO, SB203580 (20 μM) was added to the perfusate.

[2] = 24 h cold storage, 2 h reperfusion, CO 300 ppm vs air alone

SMILES | intimal thickening (mean±SEM) ([1]; allogeneic aortic grafts, MC 500 mg/kg orally daily, adenoviruses 10^10 IP into donor aorta) [%] | infiltrating cells in adventitia (HES) [1] | bile production (rat liver; [2]) | portal vein resistance (rat liver; [2]) | sGOT levels (rat liver; CO 300 ppm alone, 2 h reperfusion) [IU/L] | sGOT levels (rat liver; CO 300 ppm, 1 h reperfusion) [IU/L]
ClCCl [methylene chloride] | 8.3±4.5 | moderate reduction |  |  |  | 
[C-]#[O+] [CO, carbon monoxide] |  |  | significantly more bile | significantly decreased | 163±27 | 79±14
